This assay concerns Plasmodium falciparum Dd2 asexual blood stage parasites. As to the kind of experiment: microbe, parasite or virus in culture. Further details: species or system Plasmodium falciparum Dd2 in human erythrocytes; single determination (one 11-point concentration-response curve). As to conditions: Plasmodium falciparum, DD2, Erythrocyte, 72 h.

Here are results for 71 compounds from PMC7822874, “Chemoprotective antimalarials identified through quantitative high-throughput screening of Plasmodium blood and liver stage parasites” (Scientific Reports, 2021).

One may read the AC50 as the concentration giving half of the maximal activity seen.

Like-named read-outs stand apart in the source and are kept apart here.

As to `CCNc1nc(NC(C)CC)nc(ON=C(C)C)n1` (centres unmarked) [MLS000856336-01], the half-maximal activity concentration (AC50) (read-out: AC50) was 8.41 µM.

As to `Cc1noc(C)c1-c1cc2c(cc(-c3ccccc3)n2C)c(-c2cccnc2)n1` [NCGC00417168-01], the half-maximal activity concentration (AC50) (read-out: AC50) came to 10.9 µM. The same measure, in the same setting: to `Cc1nn(C(=N)S)c(O)c1C(c1ccccc1)C(C#N)C#N` (centres unmarked) [MLS000077118-01] belongs 6.68 µM; to `CCOC(=O)C1CCN(c2cc(=O)n(-c3ccccc3Cl)c(=O)[nH]2)CC1` [MLS000045867-01], 8.41 µM. As for `COc1ccc(CNCc2ccc(C)s2)cc1OCC(O)CN1CCCCC1` (centres unmarked) [NCGC00428936-01], the AC50 (read-out: AC50) was determined as 9.44 µM. Still for that read-out and setting: for `O=S(=O)(c1ccc(F)cc1)N1CCN(C(S)=NC2CC2)CC1` [MLS002161026-01] the value was 3.35 µM; for `C[C@]1(CO)[C@H]2Cc3sc(NC(=O)c4cccc(F)c4)nc3[C@@H](CC(=O)N3CCOCC3)[C@]2(C)CC[C@H]1O` [NCGC00395198-01], 8.41 µM. Still for that read-out and setting: for `CCOC(=O)c1c(CN2CCN(CCO)CC2)n(-c2ccccc2)c2cc(Br)c(O)cc12` [MLS000778151-01] the value was 5.96 µM. On the same count and under the same terms, to `COc1ccc(Oc2c(C(F)(F)F)oc3c(CN4CCCC(C)C4)c(O)ccc3c2=O)cc1` (centres unmarked) [NCGC00101510-01] belongs 2.37 µM; to `COc1ccc(-c2c[nH]c([C@@H]3COCCN3Cc3ccccc3O)n2)cc1` [NCGC00394307-01], 17.2 µM; to `CS(=O)(=O)c1ccc(C(=O)Nc2ccc(-c3nc4ccccc4[nH]3)cc2)cc1` [MLS001166841-01], 7.5 µM. As for `COc1ccc(C(=O)Nc2nc3c(s2)C[C@@H]2[C@](C)(CO)[C@H](O)CC[C@@]2(C)[C@@H]3CC(=O)NCc2ccco2)cc1` [NCGC00421299-01], where the note is “read-out: AC50”, the concentration at half-maximal activity (AC50) turned out to be 2.66 µM. For `CCC(=O)NC(N)=Nc1nc(C)c2cc(C)c(C)cc2n1` [MLS000768400-01], the AC50 (read-out: AC50) worked out at 9.44 µM. The same measure, in the same setting: for `Cc1[nH]c2ccc(OC(F)(F)F)cc2c1CCNCc1cccc([N+](=O)[O-])c1` [MLS001198398-01] the value was 4.73 µM; for `COc1ccc2[nH]c(C)c(CCN(Cc3cccs3)C(S)=Nc3ccc(F)cc3)c2c1` [MLS000529849-01], 4.22 µM.

For the compound `CC(C)CNC(=O)c1nc(-c2ccc(Cl)cc2)c2cnccn12` [NCGC00476461-01], the AC50 (read-out: AC50) was found to be 8.63 µM. The same measure, in the same setting: for `CCOC(=O)N1CCC(NC(=O)c2ccc3c(c2)N(Cc2ccccc2)C(=O)c2ccccc2[S+]3[O-])CC1` (centres unmarked) [NCGC00109348-01] the value was 13.3 µM; for `COc1ccc2cc1Nc1ccc(cc1)C[C@H](NCc1cccc(C(=O)O)c1)C(=O)N(C)[C@H](C(=O)Nc1ccccc1OCc1ccccc1)C2` [NCGC00410264-01], 4.73 µM. For the compound `COc1ccc(Nc2cc(C)c3cc(NC(=O)Cc4c(F)cccc4Cl)ccc3n2)cc1` [NCGC00124312-01], under “read-out: AC50”, the AC50 worked out at 5.31 µM. Still for that read-out and setting: to `COc1ccc(-n2cc(CNCCCn3ccnc3)c(-c3ccccc3Cl)n2)cc1` [MLS000734282-01] belongs 3.35 µM; to `Oc1ccc(-c2nc(C3CC3)nc3c2CN(CC2CCCCC2)CC3)cc1` [NCGC00480438-01], 6.68 µM.

On to `Oc1cc(NCc2ccc(F)cc2)cc2cccnc12` [NCGC00183798-01], for which the AC50 (read-out: AC50) worked out at 4.73 µM. Still for that read-out and setting: for `COc1cc(C2CC(=O)Nc3cc4c(cc32)OCCO4)cc(Br)c1OC` (centres unmarked) [NCGC00107055-01] the value was 5.31 µM. The compound `O=C(CN(C(=O)c1cccc([N+](=O)[O-])c1)C1CCCCC1)Nc1ccc(Cl)c([N+](=O)[O-])c1` [MLS000560351-01] returned a concentration at half-maximal activity (AC50) of 13.3 µM.

Turning to `COc1ccc(O)c(C(=O)c2cnc3c(c2)c(-c2ccc(F)cc2)c(C#N)c(=O)n3C)c1` [MLS001003111-01], for the setting “read-out: AC50”, the half-maximal activity concentration (AC50) was found to be 5.96 µM. Still for that read-out and setting: to `COc1ccc(S(=O)(=O)N2CCCCCC2)cc1NC(=O)c1c2c(nc3ccccc13)CCN(Cc1ccccc1)C2` [MLS000393062-01] belongs 4.73 µM; to `CCC(C(=O)NCCn1ccn2nc(-c3ccc(OC)cc3)cc2c1=O)c1ccccc1` (centres unmarked) [NCGC00456905-01], 15 µM; to `Cc1ccc(NC(=O)CC2SC(NC3CCCCC3)=NC2=O)cc1` (centres unmarked) [MLS000700518-01], 11.9 µM. With `CC(C)CNC(=O)CN1CN(c2ccccc2)C2(CCN(C(=O)NC3CCCCC3)CC2)C1=O` [NCGC00473208-01], the AC50 (read-out: AC50) worked out at 15 µM. On the same count and under the same terms, for `Cc1ccc(S(=O)(=O)N2CCN(/C(S)=N/Cc3ccc4c(c3)OCO4)CC2)cc1` [MLS001002637-01] the value was 2.37 µM; for `O=C(Cc1ccccc1F)N1CCOc2ccc(CN3CCc4ccccc4C3)cc2C1` [NCGC00471206-01], 13.3 µM; for `COCCN1C(=O)c2ccccc2C(C(=O)Nc2nc3ccccc3[nH]2)C12CCCC2` (centres unmarked) [NCGC00423488-01], 4.22 µM. On the same count and under the same terms, to `CCOC(=O)N1CCc2c(sc3c2c(=O)n(CCc2ccccc2)c(=O)n3Cc2c(F)cccc2Cl)C1` [NCGC00111977-01] belongs 2.66 µM; to `COc1cncc(CN2CCC3(CC2)OC(=O)N(Cc2ccc(O)cc2)C3(C)c2ccccc2)c1` (centres unmarked) [NCGC00415566-01], 9.44 µM. Turning to `CCC(CC)c1cc([C@H]2CN3CC[C@H]2C[C@@H]3CNC(=O)NCc2ccccc2)nc(-c2ccncc2)n1` [NCGC00400244-01], the AC50 (read-out: AC50) is 4.22 µM. Same read-out and setting: for `CCc1c(C)c(C#N)c2nc3ccccc3n2c1NCC1CCCO1` (centres unmarked) [MLS000556827-01] the value was 2.99 µM; for `O=C1CC2(CCN(Cc3cccs3)CC2)Oc2cc(Cl)ccc21` [NCGC00476854-01], 5.31 µM. As for `COc1ccc(S(=O)(=O)N2CCN(/C(S)=N/CC3CCCO3)CC2)cc1OC` (centres unmarked) [MLS001035648-01], the AC50 (read-out: AC50) was 6.68 µM. On the same count and under the same terms, for `Cc1nc2sc(C(c3ccco3)N3CCN(C(c4ccccc4)c4ccccc4)CC3)c(O)n2n1` (centres unmarked) [MLS000101802-01] the value was 5.96 µM. On the same count and under the same terms, for `COc1cccc(NC(=O)CN(C)C(=O)c2oc3c(ccc4ccccc43)c2C)c1` [MLS001142056-01] the value was 0.75 µM; for `Cc1noc(-c2cccs2)c1C(=O)NC(C)c1cccc2ccccc12` (centres unmarked) [NCGC00358764-02], 0.668 µM; for `CCn1nnc(NC(=O)c2ccc(C(C)(C)C)cc2)n1` [MLS000035112-01], 9.44 µM.

Consider `COc1ccc(C2=C(C(C)=O)Sc3nnc(-c4ccc(Cl)cc4)n3N2C(C)=O)cc1OC` [NCGC00137262-01], for which, where the note is “read-out: AC50”, the concentration at half-maximal activity (AC50) came to 3.76 µM. Same read-out and setting: for `CC(=O)NCCNC[C@@H]1C=C(C)[C@H](Cc2nnc(-c3ccccc3)o2)C[C@H]1C(C)C` [NCGC00395892-01] the value was 17.2 µM; for `O=C(c1ccccc1)N1CCC(Cc2nnc(-c3ccncc3)[nH]2)CC1` [NCGC00458326-01], 15 µM.

Turning to `CCCCn1c(=N)c(C(=O)NC2CCCCC2)cc2c(=O)n3cccc(C)c3nc21` [NCGC00101037-01], for the setting “read-out: AC50”, the half-maximal activity concentration (AC50) was 1.5 µM. The same measure, in the same setting: for `CCN1CCN(c2cc(C)c3cc(NC(=O)c4cc(OC)cc(OC)c4)ccc3n2)CC1` [NCGC00103842-01] the value was 3.35 µM; for `COc1cc2c(cc1OC1CCCC1)NC(=O)C21CCN(c2cnccn2)CC1` [NCGC00416906-01], 7.69 µM; for `CN(C(=O)CSc1nc2ccc(NC(=O)CCc3ccccc3)cc2s1)c1ccccc1` [NCGC00118644-01], 13.3 µM.

On to `CC1(c2ccccc2)N(Cc2ccccc2)C(=O)OC12CCN(Cc1cccc(O)c1)CC2` (centres unmarked) [NCGC00415604-01], for which the AC50 (read-out: AC50) was found to be 8.41 µM. On the same count and under the same terms, to `CC(C)c1ccccc1NC(=O)Cn1cccc1-c1nc(-c2ccccc2)no1` [NCGC00445236-01] belongs 4.22 µM; to `CC1(c2ccccc2)N(Cc2ccccc2)C(=O)OC12CCN(Cc1cccnc1)CC2` (centres unmarked) [NCGC00415410-01], 15.3 µM; to `Cc1cc2c(c3oc(=O)c4ccccc4c13)CN(Cc1ccc(F)cc1)CO2` [NCGC00116338-01], 2.66 µM. As to `COc1cccc(NC(=O)C2(C)CN(C)Cc3ccc(N4CCOCC4)nc32)c1` (centres unmarked) [NCGC00414578-01], the AC50 (read-out: AC50) was 3.85 µM.

As to `COc1ccc(-c2c3c(nc4sc(C(=O)Nc5ccc(Cl)cc5)c(N)c24)CC(C)(C)CC3=O)cc1` [NCGC00100738-01], the AC50 (read-out: AC50) worked out at 0.376 µM. Same read-out and setting: for `CCCCCCNC(=O)Cc1csc2nc(C)c(-c3cc(C)n(-c4cccc(C)c4)n3)c(=O)n12` [NCGC00473470-01] the value was 15 µM; for `O=C(Nc1ccc2c(N3CCCC3)ncnc2c1)c1ccc(Br)cc1` [NCGC00425477-01], 4.73 µM.

As for `O=C(C1=C[C@H](c2csc3ccccc23)C[C@H](OCCCCO)O1)N1CCN(Cc2ccc3c(c2)OCO3)CC1` [MLS000834451-01], the half-maximal activity concentration (AC50) (read-out: AC50) amounted to 13.3 µM. The compound `Cc1cccc(OC(C)C(=O)NCC2(N(C)C)CCCCC2)c1C` (centres unmarked) [NCGC00118727-01] yielded an AC50 of 8.41 µM. For `O[C@H]1[C@H](NCC2CCCC2)[C@@H](c2ccccc2)C[C@H]1O` [NCGC00395463-01], the concentration at half-maximal activity (AC50) (read-out: AC50) worked out at 6.11 µM. For the compound `CC(=O)Nc1ccc(NC(=O)c2c(C)oc3ccn(Cc4ccc(F)cc4)c(=O)c23)cc1` [NCGC00433889-01], the AC50 (read-out: AC50) was found to be 10.6 µM.

As for `O=C1c2c(nc(CN3CCCC(CO)C3)n2Cc2ccccc2)NCCN1Cc1cccc(Cl)c1` (centres unmarked) [NCGC00415148-01], the AC50 (read-out: AC50) was found to be 15 µM. `Cc1cnc(CC2CCCN([S+](=O)([O-])c3ccccc3)C2)n1CC1CC1` (centres unmarked) [NCGC00469674-01]: the AC50 (read-out: AC50) was found to be 6.68 µM.

`CCc1cc(=O)oc2cc(C)cc(OCC(=O)C(C)(C)C)c12` [MLS000666007-01]: the AC50 (read-out: AC50) was 11.9 µM. The same measure, in the same setting: to `CCCN1CCN(CCCNC(=O)c2ccc3c(c2)sc2nc(-c4ccc(OC)cc4)cn23)CC1` [NCGC00121829-01] belongs 4.73 µM. Still for that read-out and setting: to `O=C(c1cccc(Cl)c1)N1CCC(c2nc(O)c3nnn(Cc4ccc(F)cc4F)c3n2)CC1` [NCGC00116055-01] belongs 5.96 µM; to `O=C(Nc1ccncc1)c1cc(-c2cccc(Br)c2)nc2ccccc12` [MLS001159350-01], 13.3 µM; to `COc1ccc(NC(=O)Cc2c[nH]c3ncc(-c4cnn(C)c4)cc23)cn1` [NCGC00412250-01], 12.2 µM. Regarding `COc1ccc(-c2cc(=O)c3cc(C)ccc3[nH]2)cc1` [MLS000517811-01], the concentration at half-maximal activity (AC50) (read-out: AC50) was 10.6 µM.

Turning to `COc1ccc(NC(=O)c2ccc(-c3nnc4ccc(NC(=O)C5CC5)cn34)cc2)cc1` [NCGC00429845-01], the half-maximal activity concentration (AC50) (read-out: AC50) came out at 2.66 µM. The same measure, in the same setting: to `CN(Cc1ccccc1)Cc1cc(C[C@@H]2CC[C@H](O)[C@@H](CNCc3ccccc3)O2)no1` [NCGC00393466-01] belongs 4.73 µM.
